The assay concerns the target T1, BTK (Homo sapiens, UniProt Q06187).
T1 construct: purchased Upstate 14-552
As to the kind of experiment: In vitro BTK kinase assay: BTK-POLYGAT-LS ASSAY. The conditions noted are these: ATP 10 uM. It counts as biochemical. The procedure:
In vitro BTK kinase assay: BTK-POLYGAT-LS ASSAY. The purpose of the BTK in vitro assay is to determine compound potency against BTK through the measurement of IC50. […] A 24 μL aliquot of a ATP/peptide master mix (final concentration; ATP 10 μM, polyGAT 100 nM) in kinase buffer (10 mM Tris-HCl pH 7.5, 10 mM MgCl2, 200 μM Na3VO4, 5 mM DTT, 0.01% Triton X-100, and 0.2 mg/ml Casein) is added to each well. […] The assay is incubated for 30 minutes before being stopped with 28 μL of a 50 mM EDTA solution. […] The plate is covered and incubated for 45 minutes at room temperature. Time resolved fluorescence (TRF) on Molecular Devices M5 (332 nm excitation; 488 nm emission; 518 nm fluorescein emission) is measured.

For orientation: IC50 means the point on the concentration scale where inhibition reaches its midpoint.

T1 sequence (Q06187 whole entry): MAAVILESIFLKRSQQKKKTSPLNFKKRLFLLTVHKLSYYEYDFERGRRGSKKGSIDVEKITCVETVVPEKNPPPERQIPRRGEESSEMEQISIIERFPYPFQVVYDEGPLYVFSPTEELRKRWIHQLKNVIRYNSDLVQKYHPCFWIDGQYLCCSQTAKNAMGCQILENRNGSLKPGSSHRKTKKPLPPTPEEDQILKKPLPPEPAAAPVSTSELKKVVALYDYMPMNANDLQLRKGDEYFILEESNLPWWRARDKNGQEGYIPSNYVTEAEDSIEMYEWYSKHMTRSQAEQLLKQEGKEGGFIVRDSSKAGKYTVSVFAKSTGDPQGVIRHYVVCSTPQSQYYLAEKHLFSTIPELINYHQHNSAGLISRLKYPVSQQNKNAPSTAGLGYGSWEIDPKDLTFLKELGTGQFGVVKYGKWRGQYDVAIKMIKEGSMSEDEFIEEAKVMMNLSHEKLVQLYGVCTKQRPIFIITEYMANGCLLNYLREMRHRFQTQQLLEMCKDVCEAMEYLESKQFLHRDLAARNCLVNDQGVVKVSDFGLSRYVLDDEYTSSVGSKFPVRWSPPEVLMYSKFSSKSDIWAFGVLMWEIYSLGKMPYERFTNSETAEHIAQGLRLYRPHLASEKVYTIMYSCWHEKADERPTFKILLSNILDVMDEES

With `O=C(CNC(=O)Nc1ccccc1)NC1CCCN(c2ncnc3[nH]ccc23)C1` (stereo not drawn) [Example 2, (N-(1-(7H-pyrrolo[2,3-d]pyrimidin-4-yl)piperidin-3-yl)-2-(3-phenylureido)acetamide)], the IC50 fell in the range of 100 to 999 nM. Next, `O=C(CNC(=O)c1ccccc1)NC1CCCN(c2ncnc3[nH]ccc23)C1` (stereo not drawn) [Example 3, (N-(2-(1-(7H-pyrrolo[2,3-d]pyrimidin-4-yl)piperidin-3-ylamino)-2-oxoethyl)benzamide)]: 100 to 999 nM. For `O=C(Nc1ccccc1)C(=O)NC1CCCN(c2ncnc3[nH]ccc23)C1` (stereo not drawn) [Example 4] the value was over 10000 nM; for `O=C(COc1ccccc1)NC1CCCN(c2ncnc3[nH]ccc23)C1` (stereo not drawn) [Example 8, (N-(1-(7H-pyrrolo[2,3-d]pyrimidin-4-yl)piperidin-3-yl)-2-phenoxyacetamide)], 1000 to 10000 nM.

The molecule `O=C(N[C@@H]1CCCN(c2ncnc3[nH]ccc23)C1)[C@H]1CCc2ccccc2N1` [Example 14, (R)—N—((R)-1-(7H-pyrrolo[2,3-d]pyrimidin-4-yl)piperidin-3-yl)-1,2,3,4-tetrahydroquinoline-2-carboxamide] had an IC50 of 1000 to 10000 nM. `O=C(N[C@@H]1CCCN(c2ncnc3[nH]ccc23)C1)[C@@H]1CCc2ccccc2N1` [Example 15, (S)—N—((R)-1-(7H-pyrrolo[2,3-d]pyrimidin-4-yl)piperidin-3-yl)-1,2,3,4-tetrahydroquinoline-2-carboxamide] displayed an IC50 of 1000 to 10000 nM. Molecule `CN(CC(=O)NC1CCCN(c2ncnc3[nH]ccc23)C1)c1ccccc1` (stereo not drawn) [Example 16, (N-(1-(7H-pyrrolo[2,3-d]pyrimidin-4-yl)piperidin-3-yl)-2-(methyl(phenyl)amino)acetamide)] registered an IC50 of 1000 to 10000 nM. As to `CC(C)(C)c1ccccc1NCC(=O)NC1CCCN(c2ncnc3[nH]ccc23)C1` (stereo not drawn) [Example 17, (N-(1-(7H-pyrrolo[2,3-d]pyrimidin-4-yl)piperidin-3-yl)-2-(2-tert-butylphenylamino)acetamide)], the concentration for half-maximal inhibition (IC50) was 1000 to 10000 nM.

On to `CC(C)(C)c1cccc(NCC(=O)NC2CCCN(c3ncnc4[nH]ccc34)C2)c1` (stereo not drawn) [Example 18, (N-(1-(7H-pyrrolo[2,3-d]pyrimidin-4-yl)piperidin-3-yl)-2-(3-ten-butylphenylamino)acetamide)], for which the IC50 was in the range of 100 to 999 nM. `CC(C)(C)c1ccc(NCC(=O)NC2CCCN(c3ncnc4[nH]ccc34)C2)cc1` (stereo not drawn) [Example 19, (N-(1-(7H-pyrrolo[2,3-d]pyrimidin-4-yl)piperidin-3-yl)-2-(4-tert-butylphenylamino)acetamide)] came in with an IC50 of over 10000 nM. Next, `O=C(CNc1ccccc1Cl)NC1CCCN(c2ncnc3[nH]ccc23)C1` (stereo not drawn) [Example 20, (N-(1-(7H-pyrrolo[2,3-d]pyrimidin-4-yl)piperidin-3-yl)-2-(2-chlorophenylamino)acetamide)]: 100 to 999 nM; `O=C(CNc1ccc(Cl)cc1)NC1CCCN(c2ncnc3[nH]ccc23)C1` (stereo not drawn) [Example 22, (N-(1-(7H-pyrrolo[2,3-d]pyrimidin-4-yl)piperidin-3-yl)-2-(4-chlorophenylamino)acetamide)]: 100 to 999 nM; `O=C(CNc1ccccc1F)NC1CCCN(c2ncnc3[nH]ccc23)C1` (stereo not drawn) [Example 23, (N-(1-(7H-pyrrolo[2,3-d]pyrimidin-4-yl)piperidin-3-yl)-2-(2-fluorophenylamino)acetamide)]: 100 to 999 nM. For `O=C(CNc1cccc2c1OC(F)(F)O2)NC1CCCN(c2ncnc3[nH]ccc23)C1` (stereo not drawn) [Example 25, (N-(1-(7H-pyrrolo[2,3-d]pyrimidin-4-yl)piperidin-3-yl)-2-(2,2-difluorobenzo[d][1,3]dioxol-4-ylamino)acetamide)] the value was under 100 nM; for `NS(=O)(=O)c1cccc(NCC(=O)NC2CCCN(c3ncnc4[nH]ccc34)C2)c1` (stereo not drawn) [Example 26, (N-(1-(7H-pyrrolo[2,3-d]pyrimidin-4-yl)piperidin-3-yl)-2-(3-sulfamoylphenylamino)acetamide)], over 10000 nM.

For the origin of these results see patent publication US9029359B2, “Heteroaryl Btk inhibitors” (Biogen Idec MA, Inc., priority 2009, dated 2015).
